# Results taken from publication PMC5578373, “Inhibitory Kappa B Kinase α (IKKα) Inhibitors That Recapitulate Their Selectivity in Cells against Isoform-Related Biomarkers” (Journal of Medicinal Chemistry, 2017).
# Where two headings read alike, the source gives them in different places.
# How the values were obtained:
# [1] = target: T1, IKKα (Homo sapiens, UniProt O15111); assay: DELFIA kinase assay, IKKα; type: biochemical; conditions: for IKKα inhibitory activity: SAR discussion; for Ki: apparent Ki (Cheng–Prusoff), 40 μM ATP, three independent experiments, read-out: IKKα (Ki ± SEM μM)
# T1 construct: purchased Millipore, Dundee, UK
# T1 sequence (O15111 1-745): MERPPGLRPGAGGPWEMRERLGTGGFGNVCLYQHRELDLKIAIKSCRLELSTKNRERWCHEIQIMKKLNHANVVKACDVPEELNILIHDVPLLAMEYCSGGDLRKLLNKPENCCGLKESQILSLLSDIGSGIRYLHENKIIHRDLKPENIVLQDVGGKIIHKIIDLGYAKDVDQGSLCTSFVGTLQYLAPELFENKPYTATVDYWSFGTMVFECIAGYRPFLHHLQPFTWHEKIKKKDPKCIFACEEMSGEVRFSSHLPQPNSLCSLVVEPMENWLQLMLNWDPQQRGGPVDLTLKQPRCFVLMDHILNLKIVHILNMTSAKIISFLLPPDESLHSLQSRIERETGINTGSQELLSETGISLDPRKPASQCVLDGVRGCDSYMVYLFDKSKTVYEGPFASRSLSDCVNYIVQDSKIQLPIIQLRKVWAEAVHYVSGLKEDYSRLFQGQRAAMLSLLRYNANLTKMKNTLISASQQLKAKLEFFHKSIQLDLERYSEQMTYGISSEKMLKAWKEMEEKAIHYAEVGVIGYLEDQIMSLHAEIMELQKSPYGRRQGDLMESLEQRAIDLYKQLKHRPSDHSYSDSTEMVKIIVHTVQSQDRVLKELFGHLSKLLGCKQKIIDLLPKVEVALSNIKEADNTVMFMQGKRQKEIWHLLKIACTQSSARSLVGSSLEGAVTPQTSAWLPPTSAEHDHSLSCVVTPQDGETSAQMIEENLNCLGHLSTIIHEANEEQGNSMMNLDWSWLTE
# [2] = target: T2, IKKβ (Homo sapiens, UniProt O14920); assay: DELFIA kinase assay, IKKβ; type: biochemical
# T2 construct: purchased Millipore, Dundee, UK
# T2 sequence (O14920 1-756): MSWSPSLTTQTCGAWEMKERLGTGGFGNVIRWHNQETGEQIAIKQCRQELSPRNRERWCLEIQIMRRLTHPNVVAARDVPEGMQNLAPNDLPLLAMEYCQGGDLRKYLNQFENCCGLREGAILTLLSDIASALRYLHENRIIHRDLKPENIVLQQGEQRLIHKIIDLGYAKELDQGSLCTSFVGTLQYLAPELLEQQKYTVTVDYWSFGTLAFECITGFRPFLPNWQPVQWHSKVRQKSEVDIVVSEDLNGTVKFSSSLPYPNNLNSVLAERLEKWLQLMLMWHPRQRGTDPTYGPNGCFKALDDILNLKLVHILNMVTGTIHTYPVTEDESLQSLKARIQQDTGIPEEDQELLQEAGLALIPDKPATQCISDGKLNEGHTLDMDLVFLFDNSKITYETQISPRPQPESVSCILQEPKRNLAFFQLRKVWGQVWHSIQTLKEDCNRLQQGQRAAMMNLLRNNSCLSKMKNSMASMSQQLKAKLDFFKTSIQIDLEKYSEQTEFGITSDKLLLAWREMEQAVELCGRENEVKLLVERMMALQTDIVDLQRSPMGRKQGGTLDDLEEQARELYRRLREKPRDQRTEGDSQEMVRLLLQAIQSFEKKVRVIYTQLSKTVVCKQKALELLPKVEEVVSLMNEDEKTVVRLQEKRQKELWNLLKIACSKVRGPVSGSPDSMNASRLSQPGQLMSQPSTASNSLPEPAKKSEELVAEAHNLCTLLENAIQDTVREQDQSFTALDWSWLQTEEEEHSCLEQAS
# Source text: To identify hits that could be developed to exploit the differences between the two isoforms, we screened our in-house compound library compiled of fragments designed to target the common hinge-binding motif found in protein kinases. Using a DELFIA kinase assay kit with minor modifications[29] to measure IKKα and IKKβ inhibitory activity, we identified 2-amino-4-chloro-5-cyanopyrrolo[2,3-d]pyrimidine 4 as our primary hit (Table 1). On the basis of the assumption that the 2-aminopyrrolo[2,3-d]pyrimidine core of compound 4 was binding at the hinge of IKKα, we varied substitution at the 4-position widely. Differences in bulk and polar functionality were incorporated to exploit the greater flexibility in the IKKα ATP binding site and the position of the Asn28 side chain at the back of the pocket.
# IKKα and IKKβ inhibitory activity was determined using a dissociation enhanced ligand fluorescent immunoassay (DELFIA) based on the protocol of HTScan IKKβ kinase assay (Cell Signaling Technology, USA).
# Recombinant IKKα or IKKβ, 37 nM (Millipore, Dundee, UK), was incubated with IκB-α (Ser32) (New England Biolabs, Hitchin, UK), biotinylated peptide substrate (0.375 μM), and 40 μM ATP in assay buffer (40 mM Tris-HCl (pH 7.5), 20 mM MgCl2, EDTA 1 mM, DTT 2 mM, and BSA 0.01 mg/mL) in a V-well 96-well plate in the presence and absence of test compound. The assay plate was incubated for 60 min at 30 °C, after which the kinase reaction was quenched by the addition of 50 mM EDTA, pH 8. The resulting mixture was transferred to a streptavidin-coated 96-well plate (PerkinElmer, Beaconsfield, UK) and incubated for 1 h at 30 °C to immobilize the substrate peptide. After three washes with wash buffer (0.01 M phosphate buffered saline (PBS), 0.05% Tween-20, pH 7.4), a primary antibody against the phosphorylated substrate (phospho-IκB-α) (Ser32/36) (5A5) mouse mAb (New England Biolabs, Hitchin, UK) (1:1000 dilution with 1% bovine serum albumin (BSA) in wash buffer) was added and incubated at 37 °C for 2 h.
# After a further three washes, a secondary europiated antibody (Eu–N1 labeled antimouse IgG, (PerkinElmer, Beaconsfield, UK) diluted 1:500 in 1% BSA/wash buffer) was added and incubated at 30 °C for 30 min. After a further five washes, DELFIA enhancement solution (PerkinElmer, Beaconsfield UK) was added and allowed to incubate for 10 min at room temperature, protected from light, to facilitate the chemifluorescent detection. The relative fluorescence units (RFU) signal were measured on a Wallac Victor 1420 multilabel counter (PerkinElmer, Beaconsfield, UK) in time-resolved fluorescence mode. The counter was set at an excitation wavelength of 340 nm with a 400 μs delay before detecting emitted light at 615 nm. The apparent Ki of the phosphorylated substrate was calculated for each compound using the Cheng–Prusoff equation.
# [3] = apparent Ki (Cheng–Prusoff), 40 μM ATP, three independent experiments, read-out: IKKβ (Ki ± SEM μM)
Molecule,IKKα inhibitory activity [1],further results
"Nc1nc(NC2CCCCC2)c2c(C(F)(F)F)c[nH]c2n1 [Compound 70, N^4-Cyclohexyl-5-(trifluoromethyl)-7H-pyrrolo[2,3-d]pyrimidine-2,4-diamine]",attenuated all IKKα inhibitory activity,–
"2-Amino-4-(3-hydroxypropylamino)-7H-pyrrolo[2,3-d]pyrimidine-5-carbonitrile [Compound 23]",–,"Ki [1]: 12.1 ± 6.3 µM; Ki [2, 3]: > 30 µM"
"N#Cc1c[nH]c2nc(N)nc(N[C@@H]3CC[C@@H](O)[C@H]3O)c12 (relative stereo) [Compound 30, 2-Amino-4-((1RS,2SR,3RS)-2,3-dihydroxycyclopentylamino)-7H-pyrrolo[2,3-d]pyrimidine-5-carbonitrile]",active and selective,–
"N#Cc1c[nH]c2nc(N)nc(NC3CCCCC3)c12 [Compound 9, 2-Amino-4-(cyclohexylamino)-7H-pyrrolo[2,3-d]pyrimidine-5-carbonitrile]",–,increase in potency against IKKα ([1]; from methylamine analogue 7 to cyclohexylamine derivative 9): 5 fold
"4-((2-Amino-5-cyano-7H-pyrrolo[2,3-d]pyrimidin-4-yl)amino)benzoic acid [Compound 12]",–,"Ki [1]: > 30 µM; Ki [2, 3]: > 30 µM"
"Nc1nc(-c2ccc(S(N)(=O)=O)cc2)c2cc[nH]c2n1 [Compound 64, 4-(2-Amino-7H-pyrrol[2,3-d]pyrimidin-4-yl)benzenesulfonamide]",–,reduction of activity against IKKα ([1]; relative to 48 (absence of 5-cyano group)): more than 30 fold
Nc1nc(Cl)c2cc[nH]c2n1 [Compound 63],inactive,–
"2-Amino-4-(cyclohexylmethylamino)-7H-pyrrolo[2,3-d]pyrimidine-5-carbonitrile [Compound 10]",–,"Ki [1]: > 30 µM; Ki [2, 3]: > 30 µM"
"N#Cc1c[nH]c2nc(N)nc(NCc3ccccc3)c12 [Compound 14, 2-Amino-4-(benzylamino)-7H-pyrrolo[2,3-d]pyrimidine-5-carbonitrile]",–,"Ki ([2]; supplementary CSV, read-out: IKKbeta Ki (?M)): 19 µM"

# Second part, led by results:
IKKα inhibitory activity [1],Molecule,further results
active and selective against IKKα,"N#Cc1c[nH]c2nc(N)nc(N3CCC(O)C3)c12 (stereo in doubt) [Compound 25, (R)-2-Amino-4-(3-hydroxypyrrolidin-1-yl)-7H-pyrrolo[2,3-d]pyrimidine-5-carbonitrile]",–
active,"N#Cc1c[nH]c2nc(N)nc(N3CCC(S(N)(=O)=O)CC3)c12 [Compound 18, 1-(2-Amino-5-cyano-7H-pyrrolo[2,3-d]pyrimidin-4-yl)piperidine-4-sulfonamide]",–
active,"N#Cc1c[nH]c2nc(N)nc(N3CCCCC3)c12 [Compound 17, 2-Amino-4-(piperidin-1-yl)-7H-pyrrolo[2,3-d]pyrimidine-5-carbonitrile]",–
inactive,"N#Cc1c[nH]c2nc(N)nc(N3CC[C@@H](O)C3)c12 [Compound 24, (R)-2-Amino-4-(3-hydroxypyrrolidin-1-yl)-7H-pyrrolo[2,3-d]pyrimidine-5-carbonitrile]",–
inactive,"N#Cc1c[nH]c2nc(N)nc(N(CCO)C3CCCCC3)c12 [Compound 29, 2-Amino-4-(cyclohexyl(2-hydroxyethyl)amino)-7H-pyrrolo[2,3-d]pyrimidine-5-carbonitrile]",–
active and selective against IKKα,"N#Cc1c[nH]c2nc(N)nc(N[C@H]3CC[C@H](O)CC3)c12 [Compound 28, 2-Amino-4-((1R,4R)-4-hydroxycyclohexylamino)-7H-pyrrolo[2,3-d]pyrimidine-5-carbonitrile]",–
attenuated all IKKα inhibitory activity,"NC(=O)c1c[nH]c2nc(N)nc(N[C@H]3CC[C@H](O)CC3)c12 [Compound 71, 2-Amino-4-((1R,4R)-4-hydroxycyclohexylamino)-7H-pyrrolo[2,3-d]pyrimidine-5-carboxamide]",–
inactive,"N#Cc1c[nH]c2nc(N)nc(-c3cccc(C(N)=O)c3)c12 [Compound 55, 3-(2-Amino-5-cyano-7H-pyrrolo[2,3-d]pyrimdin-4-yl)benzamide]",IKKβ inhibitory activity ([2]; SAR discussion): inactive
